Source: paper PMC6028122, “Thermostabilization and purification of the human dopamine transporter (hDAT) in an inhibitor and allosteric ligand bound conformation” (PLoS ONE, 2018)

Biological target: T1, human dopamine transporter (hDAT) (Homo sapiens, UniProt Q01959, I248Y)
T1 construct: gene SLC6A3; hDAT-I248Y expressed in HEK293S cells
Format: cell-based

T1 sequence (Q01959 whole entry I248Y): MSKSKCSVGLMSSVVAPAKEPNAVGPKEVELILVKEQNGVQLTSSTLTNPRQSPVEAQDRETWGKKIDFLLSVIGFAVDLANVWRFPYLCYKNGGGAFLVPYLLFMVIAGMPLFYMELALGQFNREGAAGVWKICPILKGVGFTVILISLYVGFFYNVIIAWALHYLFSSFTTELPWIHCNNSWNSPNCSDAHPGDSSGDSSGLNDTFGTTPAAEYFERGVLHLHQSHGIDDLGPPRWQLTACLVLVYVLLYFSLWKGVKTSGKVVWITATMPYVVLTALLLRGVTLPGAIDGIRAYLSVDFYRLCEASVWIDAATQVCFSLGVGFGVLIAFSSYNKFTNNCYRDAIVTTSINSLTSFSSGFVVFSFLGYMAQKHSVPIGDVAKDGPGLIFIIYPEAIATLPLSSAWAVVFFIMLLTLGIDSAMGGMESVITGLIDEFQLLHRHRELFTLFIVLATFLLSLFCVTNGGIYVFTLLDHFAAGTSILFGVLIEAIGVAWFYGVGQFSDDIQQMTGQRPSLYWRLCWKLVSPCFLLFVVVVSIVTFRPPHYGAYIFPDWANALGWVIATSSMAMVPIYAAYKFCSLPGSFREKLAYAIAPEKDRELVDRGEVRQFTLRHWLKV

NCCc1ccc(O)c(O)c1 [dopamine]
[3H]dopamine uptake in cells: the I248Y mutant was also able to transport dopamine (S2 Fig)
